# Experimental data taken from patent US9890175B2, “Taxane compound, and preparation method and use thereof” (JIANGSU TASLY DIYI PHARMACEUTICAL CO., LTD., priority 2013, dated 2018).
# Where two headings read alike, the source gives them in different places.
# Key:
# LN-18 = test: MTT proliferation inhibition, LN-18; type: cell-based; conditions: Homo sapiens, LN-18, read-out: Proliferation inhibition rate, LN-18 Gastric canser
# Text: (§1) 1. Cytotoxicity Assay Using Human Tumor Cell Lines
# (§2) Paclitaxel was used as the positive drug.
# HL-60 leukemia = test: MTT proliferation inhibition, HL-60; type: cell-based; conditions: Homo sapiens, HL-60, read-out: Proliferation inhibition rate, HL60 Leukemia
# Text: as §1, §2
# [1] = system: NCI-H460 non-small cell lung cancer; test: MTT proliferation inhibition, NCI-H460; type: cell-based; conditions: Homo sapiens, NCI-H460, read-out: Proliferation inhibition rate, NCI-H460 Non-small cell lung cancer
# Text: as §1, §2
# [2] = system: A549 non-small cell lung cancer; test: MTT proliferation inhibition, A549; type: cell-based; conditions: Homo sapiens, A549, read-out: Proliferation inhibition rate, A549 Non-small cell lung cancer
# Text: as §1, §2
# K562 leukemia = test: MTT proliferation inhibition, K562; type: cell-based; conditions: Homo sapiens, K562, read-out: Proliferation inhibition rate, K562 Leukemia
# Text: as §1, §2
# [3] = system: breast cancer cell line MCF-7; test: IC50 on breast cancer cell line MCF-7; type: cell-based; conditions: Homo sapiens, MCF7, 72 h, read-out: MCF-7 (IC50, nM)
# [4] = Caco-2 cell monolayer membrane transport assay (Papp and recovery); type: in vitro ADME; conditions: human, Caco-2, Caco-2, A-B
# Text: Caco-2 Cell Monolayer Membrane Transport Assay
# (§3) Human-derived colorectal adenocarcinoma cell line Caco-2 cell monolayer model was used to study the bidirectional transport of the target compounds from the apical (AP) side to the basolateral (BL) side and from BL side to AP side. HPLC was used for quantitative analysis to calculate transport parameters, apparent permeability coefficient (Papp) and the efflux ratio.
# Hela cervical cancer = test: MTT proliferation inhibition, HeLa; type: cell-based; conditions: Homo sapiens, read-out: Proliferation inhibition rate, HeLa Uterin cancer
# Text: as §1, §2
# [5] = system: MCF-7 breast cancer cells; test: MTT proliferation inhibition, MCF-7; type: cell-based; conditions: Homo sapiens, MCF7, read-out: Proliferation inhibition rate, MCF-7 Breast cancer
# Text: as §1, §2
# A375 melanoma = test: MTT proliferation inhibition, A375; type: cell-based; conditions: Homo sapiens, A-375, read-out: Proliferation inhibition rate, A375 Melanoma
# Text: as §1, §2
# Caco-2 cell monolayer = test: Caco-2 bidirectional transport, efflux ratio; conditions: Caco-2 cell line (21 days)
# Text: as §3
# Du145 prostate cancer = test: MTT proliferation inhibition, Du145; type: cell-based; conditions: Homo sapiens, DU-145, read-out: Proliferation inhibition rate, DU145 Prostate cancer
# Text: as §1, §2
# [6] = In vivo oral bioavailability assay in rats; conditions: rat; for AUC(0-t): 0-24 hours; for MRT inf: read-out: MRT0-∞
# Text: The compound PCMI-08 was synthesized and detected according to the methods provided in the present invention. The internal standard, paclitaxel, was purchased from China's National Institute for the Control of Pharmaceutical and Biological Products (NICPBP). Chromatography-grade acetonitrile was purchased from Sigma-Aldrich Inc. Tween 80 and ethyl acetate were purchased from Aladdin reagent Inc. Male S.D. rats were purchased from Beijing Weitonglihua Inc. and raised in animal house for two weeks.
# 200 mg of PCMI-08 was dissolved in 4 ml of a mixed solution of Tween 80 and anhydrous ethanol (1:1) to prepare a stock solution at 50 mg/ml and normal saline was added to adjust to a suitable concentration. 12 male S.D. rats (300 g of body weight) were taken and divided into two groups after overnight fasting. One group was treated with intravenous injection (5 mg/kg) and the other group was treated orally (60 mg/kg). Blood was sampled in the intravenous group at 0th min, 5th min, 10th min, 20th min, 40th min, 1st h, 2nd h, 4th h, 6th h, 8th h, 12th h, 24th h, while the oral group at 5th min, 15th min, 30th min, 45th min, 1st h, 2nd h, 4th h, 6th h, 8th h, 12th h, 24th h. After 10 min centrifugation of plasma at 4500 rpm, the upper serum was taken and transferred to the corresponding EP tube, placed in a −40° C. freezer for assay.
# Agilent 1100 series configuration: Agilent G1313A HPLC autosampler device, 150 mm×2.1 mm C18 Thermo column (particle size 3 μm) reversed-phase column, detection wavelength at 230 nm, column temperature at 30° C., mobile phase of acetonitrile/water (7:3), a flow rate at 0.2 ml/min, injection volume of 20 μl. The mass spectrometry (MS) combined was Thermo Finnigan TSQ Quantum triple quadrupole configurated with electrospray ionization (ESI) in the positive ion mode. The parameters of MS analysis were as follows: spray chamber voltage, 4.0 kv; heated capillary temperature, 350° C.; protective gas (nitrogen); 20 psi; auxiliary gas (nitrogen): 5 psi; collision gas (argon); pressure: 1.5 mmTorr.; Collision energy: CA 17 eV; FA and IFA were 19 eV; IS was 15 eV.
# Paclitaxel was selected as an internal standard with a retention time of 3.07 min. Retention time of PCMI-08 was 5.13 min. MS detection condition to PCMI-08 was set as follows: 957→901 m/z; paclitaxel as an internal standard. Detection conditions: 876→308 m/z. The concentration range of the standard curve of PCMI-08 was 5-10,000 ng/ml (γ^2>0.99) and the minimum detection limit was 5 ng/ml.
# 100 μL of plasma samples were taken, into which 100 μL of the internal standard (paclitaxel, 500 ng/ml acetonitrile solution) was added, followed by addition of 3 ml of ethyl acetate after well homogenized via vortex, after 5 min shaking, centrifuging for 8 min at a rotating speed of 4500 rpm. The supernatant was transferred to a clean EP tube with nitrogen to blow to dry under heating condition. After reconstitution with 120 μL mobile phase (CH3CN/H2O=7:3), the solution was centrifuged at 12,000 rpm for 3 min, 100 μl of supernatant was taken and transferred to an autosampler vial. After LC-MS/MS detection, statistical data and pharmacokinetic parameters were processed by Xcalibur® (version 1.3) software (Thermo Finnigan).
# [7] = male, Sprague-Dawley, plasma, intravenous administration 5 mg/kg
# [8] = male, Sprague-Dawley, plasma, oral administration 60 mg/kg
smiles,measurement,setting,value
CO[C@H]1C[C@H]2OC[C@@]2(OC(C)=O)[C@H]2[C@H](OC(=O)c3ccccc3)[C@]34OC(=O)O[C@H]3[C@H](OC(=O)[C@H](O)[C@@H](NC(=O)OC(C)(C)C)c3ccccc3)C(C)=C([C@@H](OC(=O)N(C)C)C(=O)[C@]12C)C4(C)C [PCMI-08],inhibition at 1 µM,LN-18,87.7%
same,inhibition at 1 µM,HL-60 leukemia,96.8%
same,inhibition at 1 µM,[1],85.2%
same,inhibition at 1 µM,[2],68.1%
same,inhibition at 1 µM,K562 leukemia,90.8%
same,IC50,[3],7.93 ± 0.14 nM
same,Papp A→B,"[4]; Mean, read-out: Papp A-B, Mean",> 10 ×10⁻⁶ cm/s
same,recovery,"[4]; Mean, read-out: Recovery rate in mass, Mean",99.4%
same,Papp A→B,"[4]; Sample-01, read-out: Papp A-B, Sample-01",19.5 ×10⁻⁶ cm/s
same,recovery,"[4]; Sample-01, read-out: Recovery rate in mass, Sample-01",102%
same,Papp A→B,"[4]; Sample-02, read-out: Papp A-B, Sample-02",17.3 ×10⁻⁶ cm/s
same,recovery,"[4]; Sample-02, read-out: Recovery rate in mass, Sample-02",97%
same,inhibition at 1 µM,Hela cervical cancer,97.3%
same,inhibition at 1 µM,[5],81.3%
same,inhibition at 1 µM,A375 melanoma,92.8%
same,Papp A-B,Caco-2 cell monolayer; A-B,16.40 10^−6 cm/s
same,Papp B-A,Caco-2 cell monolayer; B-A,33.48 10^−6 cm/s
same,efflux ratio,Caco-2 cell monolayer; Papp B-A/Papp A-B,2.04
same,inhibition at 1 µM,Du145 prostate cancer,86.7%
same,half-life,"[6]; male, Sprague-Dawley, plasma, other: intravenous and oral (summary over both arms), route not specified, read-out: half-life (converted)",~10 h
same,AUC(0-inf),[6]; [7],4050 ± 1860 ng·h/mL
same,Cmax,[6]; [7],11000 ± 2680 ng/mL
same,Tmax,[6]; [7],0 h
same,AUC(0-t),[6]; [7],3440 ± 1480 ng·h/mL
same,MRT inf,[6]; [7],10.1 ± 2.6 h
same,half-life,"[6]; male, Sprague-Dawley, plasma, intravenous administration 5 mg/kg, read-out: t1/2 (converted)",10.2 ± 1.72 h
same,AUC(0-inf),[6]; [8],32000 ± 8540 ng·h/mL
same,Cmax,[6]; [8],2120 ± 454 ng/mL
same,Tmax,[6]; [8],3 ± 1.1 h
same,AUC(0-t),[6]; [8],25300 ± 6150 ng·h/mL
same,MRT inf,[6]; [8],15.2 ± 1.71 h
same,half-life,"[6]; male, Sprague-Dawley, plasma, oral administration 60 mg/kg, read-out: t1/2 (converted)",10.4 ± 1.14 h
same,bioavailability,"[6]; male, Sprague-Dawley, plasma, oral, 60 mg/kg, oral 60 mg/kg vs intravenous 5 mg/kg, read-out: F, absolute oral bioavailability",65.8%
same,"F, absolute oral bioavailability",[6]; oral 60 mg/kg vs intravenous 5 mg/kg,65.79%
same,mean retention time,[6]; route not specified,≥ 10 h
